Experimental data reported in publication PMC5390315 (Scientific Reports, 2017).
Values joined by “and” are separate entries in the source; they are usually repeats but may differ in a detail not shown here. Equal values may be shown once. Read-outs that look alike come from different tables or passages of the source.

Key:
HT-29 = experiment: Antiproliferative MTT assay, HT-29; assay type: cell-based, human; conditions: mean ± SE
Method: (§1) Human T-cell leukemia (Jurkat) and human B-cell leukemia (SEM and RS4;11) cells were grown in RPMI-1640 medium (Gibco, Milano, Italy). Breast adenocarcinoma (MCF-7), human cervix carcinoma (HeLa), human lung adenocarcinoma (A549) and human colon adenocarcinoma (HT-29) cells were grown in DMEM medium (Gibco, Milano, Italy), all supplemented with 115 units/mL penicillin G (Gibco, Milano, Italy), 115 μg/mL streptomycin (Invitrogen, Milano, Italy), and 10% fetal bovine serum (FBS; Invitrogen, Milano, Italy). Stock solutions (10 mM) of the different compounds were obtained by dissolving them in DMSO. Individual wells of a 96-well tissue culture microtiter plate were inoculated with 100 μL of complete medium containing 8 × 10^3 cells. The plates were incubated at 37 °C in a humidified 5% CO2 incubator for 18 h prior to the experiments. After medium removal, 100 μL of fresh medium containing the test compound at different concentrations was added to each well in triplicate and incubated at 37 °C for 72 h. The percentage of DMSO in the medium never exceeded 0.25%. This was also the maximum DMSO concentration in all cell-based assays described below.

HeLa = experiment: Antiproliferative MTT assay, HeLa; assay type: cell-based, human; conditions: 72 h, mean ± SE
Method: as §1

SEM cells = experiment: Antiproliferative MTT assay, SEM; assay type: cell-based, human; conditions: 72 h, mean ± SE
Method: as §1

Jurkat = experiment: Antiproliferative MTT assay, Jurkat; assay type: cell-based, human; conditions: 72 h, mean ± SE
Method: as §1

MCF-7 = experiment: Antiproliferative MTT assay, MCF-7; assay type: cell-based, human; conditions: mean ± SE
Method: as §1

A549 = experiment: Antiproliferative MTT assay, A549; assay type: cell-based, human; conditions: mean ± SE
Method: as §1

RS 4;11 = experiment: Antiproliferative MTT assay, RS 4;11; assay type: cell-based, human; conditions: mean ± SE
Method: as §1

[1] = test system: panel of seven human tumor cell lines; experiment: Antiproliferative activity, range over panel of seven human tumor cell lines; assay type: cell-based
Method: as §1

tubulin = experiment: Inhibition of [3H]colchicine binding to tubulin; conditions: tubulin 1 μM, [3H]colchicine 5 μM
Method: (§2) To evaluate the effect of the compounds on tubulin assembly in vitro[41], varying concentrations of compounds were preincubated with 10 μM bovine brain tubulin in 0.8 M monosodium glutamate (pH adjusted to 6.6 with HCl in a 2.0 M stock solution) at 30 °C and then cooled to 0 °C. After addition of 0.4 mM GTP, the mixtures were transferred to 0 °C cuvettes in a recording spectrophotometer and warmed to 30 °C. Tubulin assembly was followed turbidimetrically at 350 nm. […] The capacity of the test compounds to inhibit colchicine binding to tubulin was measured as described, except that the reaction mixtures contained 1 μM tubulin, 5 μM [^3H]colchicine and 1 or 5 μM test compound.

bovine brain tubulin = experiment: Inhibition of tubulin polymerization; assay type: biochemical; conditions: tubulin at 10 μM; read-out: Tubulin assembly IC50 ± S.D
Method: as §2

Molecule | IC50 (HT-29; Homo sapiens, HT-29, 72 h) [µM] | IC50 (HeLa; Homo sapiens, HeLa) [µM] | IC50 (Jurkat; Homo sapiens, Jurkat) [µM] | IC50 (MCF-7; Homo sapiens, MCF7, 72 h) [µM] | IC50 (A549; Homo sapiens, A549, 72 h) [µM] | Colchicine binding % inhibition ± S.D, 5 μM drug (tubulin) | IC50 (bovine brain tubulin) [µM] | melting point [°C] | IC50 (SEM cells; Homo sapiens) [µM] | IC50 (RS 4;11; Homo sapiens, RS4-11, 72 h) [µM] | further results
5-(3,4,5-Trimethoxyphenyl)-4-(3-methoxyphenyl)-2-methyloxazole [Compound 4f] | – | – | – | – | – | – | – | – | – | – | IC50 (HT-29; 72 h): > 10 µM; IC50 (HeLa): > 10 µM; IC50 (SEM cells): 3.63 ± 0.171 µM; IC50 (Jurkat): 5.23 ± 0.0882 µM; IC50 (MCF-7; 72 h): > 10 µM; IC50 (A549; 72 h): > 10 µM; IC50 (RS 4;11; 72 h): 5.33 ± 0.167 µM
5-(3,4,5-Trimethoxyphenyl)-4-(4-chlorophenyl)-2-methyloxazole [Compound 4c] | – | – | – | – | – | – | – | – | – | – | IC50 (HT-29; 72 h): 1.4 ± 0.384 µM; IC50 (HeLa): 2.82 ± 0.169 µM; IC50 (SEM cells): 2.21 ± 0.256 µM; IC50 (Jurkat): 5.58 ± 0.888 µM; IC50 (MCF-7; 72 h): 2.59 ± 0.447 µM; IC50 (A549; 72 h): 8.79 ± 2.31 µM; IC50 (RS 4;11; 72 h): 0.84 ± 0.26 µM
5-(3,4,5-Trimethoxyphenyl)-4-(4-fluorophenyl)-2-methyloxazole [Compound 4b] | – | – | – | – | – | – | – | – | – | – | IC50 (HT-29; 72 h): > 10 µM; IC50 (HeLa): > 10 µM; IC50 ([1]; read-out: IC50 values against all cell lines screened): > 9 µM; IC50 (SEM cells): 9.55 ± 2.05 µM; IC50 (Jurkat): > 10 µM; IC50 (MCF-7; 72 h): > 10 µM; IC50 (A549; 72 h): > 10 µM; IC50 (RS 4;11; 72 h): > 10 µM
COc1ccc(-c2nc(C)sc2-c2cc(OC)c(OC)c(OC)c2)cc1 [Compound 3e, 2-methyl-4-(4′-methoxyphenyl)-5-(3′,4’,5′-trimethoxyphenyl)thiazole, reference compound] | 3.7 ± 0.263 | 1.98 ± 0.78 | 7.2 ± 0.586 | 1.93 ± 0.448 | 2.76 ± 1.2 | – | – | – | 1.98 ± 0.78 | 2.97 ± 0.738 | –
COc1cc(-c2nc(C)oc2-c2ccc(C)cc2)cc(OC)c1OC [Compound 4d, 4-(3,4,5-Trimethoxyphenyl)-2-methyl-5-p-tolyloxazole] | 0.053 ± 0.0246 | 0.031 ± 0.016 | 0.102 ± 0.0226 | 0.244 ± 0.0742 | 0.0923 ± 0.0215 | 86% and 82 ± 3% | 0.66 | 110 to 112 | 0.134 ± 0.0395 | 0.0253 ± 0.0032 | Colchicine binding % inhibition ± S.D, 1 μM drug (tubulin): 55 ± 3%; IC50 ([1]; Homo sapiens, read-out: IC50 values, range over the cell line panel): 0.025 to 0.243 µM
COc1ccc(-c2oc(C)nc2-c2cc(OC)c(OC)c(OC)c2)cc1 [Compound 4e, 4-(3,4,5-Trimethoxyphenyl)-5-(4-methoxyphenyl)-2-methyloxazole] | 0.0408 ± 0.0197 | 0.0108 ± 0.0047 | 0.0187 ± 0.006 | 0.0277 ± 0.012 | 0.179 ± 0.0363 | 78 ± 3% | 0.95 ± 0.1 | 134 to 136 | 0.0356 ± 0.0125 | 0.0076 ± 0.0023 | Colchicine binding % inhibition ± S.D, 1 μM drug (tubulin): 47 ± 4%
COc1ccc(-c2oc(C)nc2-c2cc(OC)c(OC)c(OC)c2)cc1Cl [Compound 4h, 5-(3-Chloro-4-methoxyphenyl)-4-(3,4,5-trimethoxyphenyl)-2-methyloxazole] | 0.207 ± 0.093 | 0.169 ± 0.0755 | 0.512 ± 0.0927 | 0.144 ± 0.0643 | 0.138 ± 0.0137 | – | – | 150 to 152 | 0.233 ± 0.0346 | 0.047 ± 0.0139 | –
CCOc1ccc(-c2oc(C)nc2-c2cc(OC)c(OC)c(OC)c2)cc1Cl [Compound 4j, 5-(3-Chloro-4-ethoxyphenyl)-4-(3,4,5-trimethoxyphenyl)-2-methyloxazole] | 0.0009 ± 0.0005 | 0.0042 ± 0.0013 | 0.0777 ± 0.0061 | 0.0015 ± 0.0006 | 0.0203 ± 0.0114 | 53 ± 3% | 1.8 ± 0.1 | 124 to 126 | 0.051 ± 0.0135 | 0.0202 ± 0.0054 | –

More lines, main results first:

IC50 (HT-29; Homo sapiens, HT-29, 72 h) [µM] | IC50 (HeLa; Homo sapiens, HeLa) [µM] | IC50 (Jurkat; Homo sapiens, Jurkat) [µM] | IC50 (MCF-7; Homo sapiens, MCF7, 72 h) [µM] | IC50 (A549; Homo sapiens, A549, 72 h) [µM] | Colchicine binding % inhibition ± S.D, 5 μM drug (tubulin) | IC50 (bovine brain tubulin) [µM] | melting point [°C] | Molecule | IC50 (SEM cells; Homo sapiens) [µM] | IC50 (RS 4;11; Homo sapiens, RS4-11, 72 h) [µM] | further results
0.315 ± 0.145 | 0.037 ± 0.0144 | 0.638 ± 0.153 | 0.0052 ± 0.0024 | 0.0452 ± 0.0125 | 64 ± 4% | 1.6 ± 0.1 | 95 to 97 | COc1cc(-c2oc(C)nc2-c2ccc3ccccc3c2)cc(OC)c1OC [Compound 5a, 5-(3,4,5-Trimethoxyphenyl)-2-methyl-4-(naphthalen-3-yl)oxazole] | – | 0.249 ± 0.0893 | –
> 10 | > 10 | 9 ± 0.577 | > 10 | > 10 | – | – | 132 to 133 | COc1cc(-c2oc(C)nc2-c2ccc(F)cc2)cc(OC)c1OC [Compound 5b, 4-(4-Fluorophenyl)-5-(3,4,5-trimethoxyphenyl)-2-methyloxazole] | > 10 | > 10 | IC50 ([1]; Homo sapiens, read-out: IC50 values against all cell lines screened): > 9 µM
> 10 | 2.56 ± 0.475 | 5.25 ± 0.000934 | > 10 | > 10 | – | – | 149 to 151 | COc1cc(-c2oc(C)nc2-c2ccc(Cl)cc2)cc(OC)c1OC [Compound 5c, 4-(4-Chlorophenyl)-5-(3,4,5-trimethoxyphenyl)-2-methyloxazole] | 6.57 ± 0.5 | 0.815 ± 0.406 | –
0.523 ± 0.0618 | 0.148 ± 0.0553 | 0.922 ± 0.0766 | 0.36 ± 0.0526 | 2.58 ± 0.289 | – | – | 128 to 129 | COc1cc(-c2oc(C)nc2-c2ccc(C)cc2)cc(OC)c1OC [Compound 5d, 5-(3,4,5-Trimethoxyphenyl)-2-methyl-4-p-tolyloxazole] | 0.352 ± 0.0778 | 0.635 ± 0.387 | –
0.0123 ± 0.0059 | 0.024 ± 0.0105 | 0.0436 ± 0.0123 | 0.0838 ± 0.0202 | 0.243 ± 0.0515 | 54 ± 3% | 2.6 ± 0.3 | 108 to 110 | COc1ccc(-c2nc(C)oc2-c2cc(OC)c(OC)c(OC)c2)cc1 [Compound 5e, 5-(3,4,5-Trimethoxyphenyl)-4-(4-methoxyphenyl)-2-methyloxazole] | 0.0966 ± 0.0225 | 0.0173 ± 0.0042 | –
